Measurements taken from US12077503B2, “Substituted cyclic amides and their use as herbicides” (FMC CORPORATION, priority 2015, dated 2024).

Key:
Format in all cases: in vivo
[1] = tested on: transplanted rice seedlings (Oryza sativa cv. ‘Japonica—M202’); experiment: Test F flooded paddy test; design: key: 0 = no effect, 100 = complete control; details: Flood
corn (Zea mays) = experiment: Test C postemergence; details: scale 0 to 100, 0 no effect, 100 complete control
Source text: (§1) Seeds of plant species selected from blackgrass (Alopecurus myosuroides), ryegrass, Italian (Italian ryegrass, Lolium multiflorum), wheat (winter wheat, Triticum aestivum), Galium (catchweed bedstraw, Galium aparine), corn (Zea mays), crabgrass, large (large crabgrass, Digitaria sanguinalis), foxtail, giant (giant foxtail, Setaria faberii), johnsongrass (Sorghum halepense), lambsquarters (Chenopodium album), morningglory (Ipomoea coccinea), nutsedge, yellow (yellow nutsedge, Cyperus esculentus), pigweed (Amaranthus retroflexus), ragweed (common ragweed, Ambrosia elatior), soybean (Glycine max), barnyardgrass (Echinochloa crus-galli), oilseed rape (Brassica napus), waterhemp (common waterhemp, Amaranthus rudis) and velvetleaf (Abutilon theophrasti) were planted into a blend of loam soil and sand and treated preemergence with test chemicals formulated in a non-phytotoxic solvent mixture which included a surfactant.
(§2) At the same time, plants selected from these crop and weed species and also Kochia (Kochia scoparia), oat, wild (wild oat, Avena fatua), and chickweed (common chickweed, Stellaria media) were planted in pots containing Sunshine Redi-Earth® planting medium comprising spaghnum peat moss, vermiculite, starter nutrients and dolomitic limestone and treated with postemergence applications of test chemicals formulated in the same manner. Plants ranged in height from 2 to 18 cm (1- to 4-leaf stage) for postemergence treatments. Treated plants and controls were maintained in a greenhouse for 13 to 15 d, after which time all species were compared to controls and visually evaluated. Plant response ratings, summarized in Table C, are based on a scale of 0 to 100 where 0 is no effect and 100 is complete control. A dash (-) response means no test result.

[2] = tested on: blackgrass (Alopecurus myosuroides); experiment: Test C postemergence; details: scale 0 to 100, 0 no effect, 100 complete control
Source text: as §1, §2

[3] = tested on: nutsedge, yellow (yellow nutsedge, Cyperus esculentus); experiment: Test C postemergence; details: scale 0 to 100, 0 no effect, 100 complete control
Source text: as §1, §2

[4] = tested on: oat, wild (wild oat, Avena fatua); experiment: Test C postemergence; details: scale 0 to 100, 0 no effect, 100 complete control
Source text: as §1, §2

[5] = tested on: crabgrass, large (large crabgrass, Digitaria sanguinalis); experiment: Test C postemergence; details: scale 0 to 100, 0 no effect, 100 complete control
Source text: as §1, §2

Kochia (Kochia scoparia) = experiment: Test C postemergence; details: scale 0 to 100, 0 no effect, 100 complete control
Source text: as §1, §2

[6] = tested on: lambsquarters (Chenopodium album); experiment: Test C postemergence; details: scale 0 to 100, 0 no effect, 100 complete control
Source text: as §1, §2

[7] = tested on: barnyardgrass (Echinochloa crus-galli); experiment: Test C postemergence; details: scale 0 to 100, 0 no effect, 100 complete control
Source text: as §1, §2

[8] = tested on: morningglory (Ipomoea coccinea); experiment: Test C postemergence; details: scale 0 to 100, 0 no effect, 100 complete control
Source text: as §1, §2

[9] = tested on: ragweed (common ragweed, Ambrosia elatior); experiment: Test C postemergence; details: scale 0 to 100, 0 no effect, 100 complete control
Source text: as §1, §2

[10] = tested on: ryegrass, Italian (Italian ryegrass, Lolium multiflorum); experiment: Test C postemergence; details: scale 0 to 100, 0 no effect, 100 complete control
Source text: as §1, §2

[11] = tested on: johnsongrass (Sorghum halepense); experiment: Test C postemergence; details: scale 0 to 100, 0 no effect, 100 complete control
Source text: as §1, §2

[12] = tested on: velvetleaf (Abutilon theophrasti); experiment: Test C postemergence; details: scale 0 to 100, 0 no effect, 100 complete control
Source text: as §1, §2

[13] = tested on: Galium (catchweed bedstraw, Galium aparine); experiment: Test C postemergence; details: scale 0 to 100, 0 no effect, 100 complete control
Source text: as §1, §2

[14] = tested on: pigweed (Amaranthus retroflexus); experiment: Test C postemergence; details: scale 0 to 100, 0 no effect, 100 complete control
Source text: as §1, §2

[15] = tested on: waterhemp (common waterhemp, Amaranthus rudis); experiment: Test C postemergence; details: scale 0 to 100, 0 no effect, 100 complete control
Source text: as §1, §2

CN1C[C@H](c2ccc(F)c(F)c2)[C@@H](C(=O)Nc2cccc(F)c2F)C1=O [Compound 639, (3S,4S)—N-(2,3-difluorophenyl)-4-(3,4-difluorophenyl)-1-methyl-2-oxo-3-pyrrolidinecarboxamide]
Plant response rating: Rice, Transplanted ([1]; 32 g ai/ha): 0
Plant response rating: Rice, Transplanted ([1]; 64 g ai/ha): 15
Plant response rating: Rice, Transplanted ([1]; 125 g ai/ha): 25
Plant response rating: Rice, Transplanted ([1]; 250 g ai/ha): 40
Plant response rating, Corn (corn (Zea mays); 31 g ai/ha): 0
Plant response rating, Corn (corn (Zea mays); 62 g ai/ha): 0
Plant response rating, Corn (corn (Zea mays); 125 g ai/ha): 0
Plant response rating, Corn (corn (Zea mays); 250 g ai/ha): 35
Plant response rating, Blackgrass ([2]; 31 g ai/ha): 0
Plant response rating, Blackgrass ([2]; 62 g ai/ha): 0
Plant response rating, Blackgrass ([2]; 125 g ai/ha): 5
Plant response rating, Blackgrass ([2]; 250 g ai/ha): 10
Plant response rating, Nutsedge, Yellow ([3]; 31 g ai/ha): 0
Plant response rating, Nutsedge, Yellow ([3]; 62 g ai/ha): 0
Plant response rating, Nutsedge, Yellow ([3]; 125 g ai/ha): 0
Plant response rating, Nutsedge, Yellow ([3]; 250 g ai/ha): 10
Plant response rating, Oat, Wild ([4]; 31 g ai/ha): 0
Plant response rating, Oat, Wild ([4]; 62 g ai/ha): 0
Plant response rating, Oat, Wild ([4]; 125 g ai/ha): 0
Plant response rating, Oat, Wild ([4]; 250 g ai/ha): 0
Plant response rating, Crabgrass, Large ([5]; 31 g ai/ha): 60
Plant response rating, Crabgrass, Large ([5]; 62 g ai/ha): 70
Plant response rating, Crabgrass, Large ([5]; 125 g ai/ha): 70
Plant response rating, Crabgrass, Large ([5]; 250 g ai/ha): 80
Plant response rating, Kochia (Kochia (Kochia scoparia); 31 g ai/ha): 40
Plant response rating, Kochia (Kochia (Kochia scoparia); 62 g ai/ha): 50
Plant response rating, Kochia (Kochia (Kochia scoparia); 125 g ai/ha): 80
Plant response rating, Kochia (Kochia (Kochia scoparia); 250 g ai/ha): 85
Plant response rating, Lambsquarters ([6]; 31 g ai/ha): 40
Plant response rating, Lambsquarters ([6]; 62 g ai/ha): 75
Plant response rating, Lambsquarters ([6]; 125 g ai/ha): 65
Plant response rating, Lambsquarters ([6]; 250 g ai/ha): 70
Plant response rating, Barnyardgrass ([7]; 31 g ai/ha): 20
Plant response rating, Barnyardgrass ([7]; 62 g ai/ha): 40
Plant response rating, Barnyardgrass ([7]; 125 g ai/ha): 70
Plant response rating, Barnyardgrass ([7]; 250 g ai/ha): 85
Plant response rating, Morningglory ([8]; 31 g ai/ha): 30
Plant response rating, Morningglory ([8]; 62 g ai/ha): 25
Plant response rating, Morningglory ([8]; 125 g ai/ha): 60
Plant response rating, Morningglory ([8]; 250 g ai/ha): 75
Plant response rating, Ragweed ([9]; 31 g ai/ha): 0
Plant response rating, Ragweed ([9]; 62 g ai/ha): 10
Plant response rating, Ragweed ([9]; 125 g ai/ha): 50
Plant response rating, Ragweed ([9]; 250 g ai/ha): 65
Plant response rating, Ryegrass, Italian ([10]; 31 g ai/ha): 0
Plant response rating, Ryegrass, Italian ([10]; 62 g ai/ha): 0
Plant response rating, Ryegrass, Italian ([10]; 125 g ai/ha): 5
Plant response rating, Ryegrass, Italian ([10]; 250 g ai/ha): 10
Plant response rating, Johnsongrass ([11]; 31 g ai/ha): 0
Plant response rating, Johnsongrass ([11]; 62 g ai/ha): 0
Plant response rating, Johnsongrass ([11]; 125 g ai/ha): 0
Plant response rating, Johnsongrass ([11]; 250 g ai/ha): 0
Plant response rating, Velvetleaf ([12]; 31 g ai/ha): 35
Plant response rating, Velvetleaf ([12]; 62 g ai/ha): 60
Plant response rating, Velvetleaf ([12]; 125 g ai/ha): 50
Plant response rating, Velvetleaf ([12]; 250 g ai/ha): 60
Plant response rating, Galium ([13]; 31 g ai/ha): 50
Plant response rating, Galium ([13]; 62 g ai/ha): 50
Plant response rating, Galium ([13]; 125 g ai/ha): 70
Plant response rating, Galium ([13]; 250 g ai/ha): 70
Plant response rating, Pigweed ([14]; 31 g ai/ha): 10
Plant response rating, Pigweed ([14]; 62 g ai/ha): 45
Plant response rating, Pigweed ([14]; 125 g ai/ha): 40
Plant response rating, Pigweed ([14]; 250 g ai/ha): 45
Plant response rating, Waterhemp ([15]; 31 g ai/ha): 10
Plant response rating, Waterhemp ([15]; 62 g ai/ha): 25
Plant response rating, Waterhemp ([15]; 125 g ai/ha): 30
Plant response rating, Waterhemp ([15]; 250 g ai/ha): 25
